{"source": "paper PMC7730438", "about": "“Generation of KS-58 as the first K-Ras(G12D)-inhibitory peptide presenting anti-cancer activity in vivo” (Scientific Reports, 2020)", "key": {"[1]": {"target": "T1, K-Ras(G12D)^GTP–BRAF interaction (Homo sapiens, UniProt P01116, G12D)", "T1 construct": "host or cells: HEK293T", "assay": "Intracellular PPI inhibition assay using NanoBiT in HEK293T cells", "format": "cell-based", "details": "peptide 30 µM, n = 4", "experimental": "(§1) Intracellular protein–protein interaction (PPI) inhibition assays were carried out using the NanoBiT system (Promega). Three kinds of plasmids with CMV promoters, which encodes human K-Ras(G12D) fusing SmBiT to the N-terminus, encodes human SOS1 fusing LgBiT to the C-terminus, and encodes human BRAF fusing LgBiT to the C-terminus, were prepared by Promega. Each combination of plasmids was transfected to HEK293T cells by FuGENE HD Reagent (E2312, […]). After 30 h incubation at 37 °C under 5% CO2, the cells were recovered, and seeded to 96-well tissue culture white plate with 10% FBS containing DMEM, and incubated overnight. Peptides were added to the plate and incubated for another 2 h. Nano-Glo (Promega, N2011) was directly added to the plate, and luminescence was immediately monitored. Intracellular K-Ras(G12D)^GDP–SOS1 and K-Ras(G12D)^GTP–BRAF interactions (%) were calculated based on no peptide treatment as 100% and only transfection of plasmid encoding LgBiT fusion protein as 0%."}, "[2]": {"target": "T2, K-Ras(G12D)^GDP–SOS1 interaction (Homo sapiens, UniProt P01116, G12D)", "T2 construct": "host or cells: HEK293T", "assay": "Intracellular PPI inhibition assay using NanoBiT in HEK293T cells", "format": "cell-based", "details": "peptide 30 µM, n = 4", "experimental": "as §1"}, "A427 cells": {"tested_on": "A427 cells", "assay": "Cell proliferation assay (CellTiter-Glo, 72 h)", "format": "cell-based, human", "details": "A427 (G12D), peptide 30 µM, n = 4, ± SEM", "experimental": "A427 (ATCC HTB-53), A549 (ATCC CCL-185), H1975 (ATCC CRL-5908), PANC-1 (ATCC CRL-1469), MIA PaCa-2 (ATCC CRL-1420), and Capan-1 (ATCC HTB-79) cells were purchased from ATCC, and each cell was cultured in medium supplemented with 10% fetal bovine serum (FBS), according to the protocol recommended by the manufacture.\nThe effect of peptides on cell proliferation of A427, A549, H1975, PANC-1, MIA PaCa-2, and Capan-1 cells was determined by 72 h exposure to peptides. Cells were seeded at 1000 cells/well in 96-well tissue culture plates in each growth media and allowed to adhere overnight on day 0. Peptides were solved in DMSO and then diluted with each growth media for a constant final DMSO concentration of 0.5%. Media in the wells were removed and replaced with diluted peptide solutions, and cells were incubated for 3 days. During the incubation, medium containing the peptides was replaced every day. Relative cell numbers were estimated using CellTiter-Glo assay kit (G7570, Promega, WI, USA) according to the manufacturer’s instructions. Luminescence was detected using SpectraMax i3x (MOLECULAR DEVICES, CA, USA). Cell proliferation rate (%) was calculated based on cell numbers at day 0 as 0% and at day 3 without peptide treatment as 100%."}, "[3]": {"target": "T3, recombinant K-Ras(G12D) protein (Homo sapiens, UniProt P01116, G12D)", "T3 construct": "purchased Abcam ab268712", "assay": "Cell-free ELISA binding of biotin-labeled peptides", "details": "Fig. 4A", "description": "(§2) Ras protein was directly coated to wells of Nunc MaxiSorp microplate in PBS containing 0.01 mM GDP and 10 mM MgCl2 overnight at 4 °C. The wells were blocked in PBS containing 0.1% bovine serum albumin (BSA) for 0.5 h at 25 °C.\nFor binding assays of biotin-labeled peptides, Ras protein (25 μg/mL) was coated to wells of Nunc MaxiSorp 96-well clear plate (439,454) as described above. After washing the wells three times using PBS containing 0.1% Tween20 (PBST), biotin-labeled peptides in PBS containing 0.025% BSA, 0.01 mM GDP, and 10 mM MgCl2 were added to the wells. After 0.5 h incubation at 25 °C, the wells were washed with PBST three times. Bound biotin-labeled peptides were detected using horseradish peroxidase (HRP)-conjugated streptavidin (SA) (ab7403, Abcam) and 1-Step Ultra TMB-ELISA Substrate Solution (34028, Thermo Fisher Scientific). The amounts of HRP in the wells were measured by absorbance to 450 nm."}, "[4]": {"target": "T3, recombinant K-Ras(G12D) protein", "assay": "Competition binding assay (ELISA) against Biotin-KRpep-2d", "details": "competitive inhibition of Biotin-KRpep-2d (100 nM) binding; n = 4, ± SEM", "description": "as §2\nFor competition binding assays, Ras protein (250 ng/mL) was coated to wells of Nunc MaxiSorp 96-well clear plate (439454) as described above. […] The amounts of HRP in the wells were measured by absorbance at 450 nm."}, "[5]": {"tested_on": "PANC-1 xenografts (pancreas weight)", "assay": "Combination administration test of KS-58 and gemcitabine", "format": "in vivo, mice", "details": "gemcitabine alone, 40 mg/kg intraperitoneally once every 4 days for 4 weeks", "experimental": "To establish orthotropic xenograft tumor models, 2.5 × 10^6 cells/50 µL of PANC-1 cells were injected into the pancreas of BALB/cAJcl-nu/nu male mice (8 weeks old; CLEA Japan, Inc.). KS-58 was dissolved in DMSO and then tenfold diluted by saline. The peptide solution was then injected intravenously to the mice bearing tumors once every 2 days for 4 weeks (40 mg/kg, n = 7). Organ weights of the pancreas, liver, and kidney were measured. In combination administration test, gemcitabine hydrochloride solution (Nipponkayaku) was tenfold diluted by saline and then injected intraperitoneally to the mice bearing tumors once every 4 days for 4 weeks (40 mg/kg, n = 10), and peptide solution prepared as a same manner described above was injected intravenously to the mice bearing tumors once every 2 days for 4 weeks (10, 20, or 40 mg/kg, n = 10). Organ weights of the pancreas were measured."}, "[6]": {"target": "Recombinant human K-Ras(G12D) (human) (UniProt P01116)"}, "[7]": {"target": "SmBiT-fused K-Ras(G12D) (human) (UniProt P01116)", "assay": "split reporter (BiFC, NanoBiT); NanoBiT in transfected HEK293T cells; peptides (30 µM) added to the cells for 2 h; remaining K-Ras(G12D)-SOS1 or K-Ras(G12D)-BRAF luminescence in % of no peptide"}}, "note": "Where “and” joins values, the source holds several entries; their conditions need not be identical. Equal entries are not always repeated. Starred links: 1 amine or outer side, 2 acyl side, 3 side chain; linkers in the order of their positions; H or OH if unused. Positions of bridges follow the written chain, without caps; N, C: chain ends. Non-standard residues stand in square brackets, D forms with d. Residues, ends and D or L forms follow the SMILES beside them. Groups on a side chain read outwards from the residue. *: point of attachment. Biotin = O=C1N[C@H]2[C@H](CS[C@H]2CCCCC(=O)*)N1; Phe(4-F) = N[C@@H](Cc1ccc(F)cc1)C(=O)O; X1 = CCCCCCC[C@H](N[*:1])C(=O)[*:2]; Nle = CCCC[C@H](N)C(=O)O; X2 = C(C[*:1])C[*:2]; Ahx = NCCCCCC(=O)O; βAla = NCCC(=O)O", "data": [{"compound": "c(βAla-Pro-Nle-Cys-Anon-Ser-4fF-Asp-Pro-Trp-^DCys) [KS-58(monocyclic)]", "values": [{"measurement": "Intracellular K-Ras(G12D)^GTP–BRAF interaction (luminescence, %)", "setting": "[1]", "value": "weaker inhibition activity than KS-58"}, {"measurement": "Intracellular K-Ras(G12D)^GDP–SOS1 interaction (luminescence, %)", "setting": "[2]", "value": "weaker inhibition activity than KS-58"}, {"measurement": "Cell proliferation (%)", "setting": "A427 cells", "value": "87.1 ± 1.4", "unit": "%"}]}, {"compound": "CCCCCCC[C@@H]1NC(=O)[C@@H]2CSCCCSC[C@@H](NC(=O)[C@H](Cc3c[nH]c4ccccc34)NC(=O)[C@H](CCCCNC(=O)CCCCCNC(=O)CCCC[C@@H]3SC[C@@H]4NC(=O)N[C@@H]43)NC(=O)[C@H](CC(=O)O)NC(=O)[C@H](Cc3ccc(F)cc3)NC(=O)[C@H](CO)NC1=O)C(=O)NCCC(=O)N1CCC[C@H]1C(=O)N[C@@H](CCCC)C(=O)N2", "note": "[Biotin-KS-58, c[βAla-Pro-Nle-c(Cys-Anon-Ser-4fF-Asp-Lys(εN-biotin)-Trp-^DCys)]] (cyclo([βAla]P[Nle]C[X1]S[Phe(4-F)]DK([Ahx-Biotin])W[dC]); linker 4-11 via X2)", "values": [{"measurement": "Binding activity to K-Ras(G12D) protein in ELISA (in words)", "setting": "[3]", "value": "peptide concentration-dependent binding"}]}, {"compound": "c[Arg-Arg-Arg-Arg-c(Dap-Pro-Nle-Trp-Anon-Dap-Cha-Asp-Pro-Trp-Asp)-Arg-Arg-Arg-Arg] [KS-36]", "values": [{"measurement": "K-Ras(G12D)-binding activity, fold-value compared to the parental KRpep-2d set as 1.0", "setting": "[4]", "value": "about 30 Fold"}, {"measurement": "Cell proliferation (%)", "setting": "A427 cells", "value": "33.1% and 33.1 ± 9.6%"}]}, {"compound": "Nc1ccn([C@@H]2O[C@H](CO)[C@@H](O)C2(F)F)c(=O)n1", "note": "[Gemcitabine, gemcitabine]", "values": [{"measurement": "cell growth of PANC-1 (pancreas weight; Sham = 0%, vehicle = 100%)", "setting": "[5]", "value": 66, "unit": "%"}]}, {"compound": "KS-58 (peptide)", "values": [{"measurement": "cell proliferation (%) of A427 cells (K-Ras G12D) at 30 µM peptide, 72 h, CellTiter-Glo", "setting": "[6]", "value": 21.1, "unit": "%"}, {"measurement": "cell proliferation (%) of PANC-1 cells (K-Ras G12D) at 30 µM peptide, 72 h, CellTiter-Glo", "setting": "[6]", "value": 50.1, "unit": "%"}, {"measurement": "pERK (%) in A427 cells (K-Ras G12D) at 30 µM peptide", "setting": "[6]", "value": 26, "unit": "%"}, {"measurement": "pERK (%) in PANC-1 cells (K-Ras G12D) at 30 µM peptide", "setting": "[6]", "value": 57.6, "unit": "%"}, {"measurement": "percent of K-Ras(G12D)-BRAF NanoBiT luminescence left at 30 µM peptide", "setting": "[7]", "value": 53.8, "unit": "%"}, {"measurement": "percent of K-Ras(G12D)-SOS1 NanoBiT luminescence left at 30 µM peptide", "setting": "[7]", "value": 35.5, "unit": "%"}]}]}
